Test [1] has as its target T1, Corticotropin-releasing factor receptor 2/Corticotropin-releasing factor-binding protein (Homo sapiens, UniProt P24387+Q13324).
T1 sequence (Q13324 whole entry): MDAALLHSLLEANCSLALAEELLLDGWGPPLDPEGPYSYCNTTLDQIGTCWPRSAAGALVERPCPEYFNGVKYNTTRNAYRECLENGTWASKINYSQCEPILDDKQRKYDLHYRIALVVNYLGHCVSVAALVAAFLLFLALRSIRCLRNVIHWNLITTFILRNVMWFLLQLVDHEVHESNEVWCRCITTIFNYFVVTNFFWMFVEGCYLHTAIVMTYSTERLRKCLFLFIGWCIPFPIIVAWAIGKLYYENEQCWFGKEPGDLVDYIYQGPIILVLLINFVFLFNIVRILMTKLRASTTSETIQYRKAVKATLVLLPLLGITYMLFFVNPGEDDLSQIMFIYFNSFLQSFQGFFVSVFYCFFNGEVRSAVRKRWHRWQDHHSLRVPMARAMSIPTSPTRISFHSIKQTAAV
T1 sequence (P24387 whole entry): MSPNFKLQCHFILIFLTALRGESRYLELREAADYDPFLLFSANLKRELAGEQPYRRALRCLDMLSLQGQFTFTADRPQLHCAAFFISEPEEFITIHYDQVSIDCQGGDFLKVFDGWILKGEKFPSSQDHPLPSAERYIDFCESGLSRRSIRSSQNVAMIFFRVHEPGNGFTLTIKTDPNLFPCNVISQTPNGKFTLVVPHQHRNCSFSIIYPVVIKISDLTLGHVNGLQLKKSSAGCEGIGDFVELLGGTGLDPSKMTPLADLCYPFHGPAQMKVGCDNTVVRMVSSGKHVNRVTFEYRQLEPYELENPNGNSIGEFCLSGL
Briefly: Dose Response confirmation of uHTS hits for small molecule antagonists of the CRF-binding protein and CRF-R2 receptor complex. It counts as functional. As to conditions: read-out: IC50_Mean.

For test [2], the target named is T1, Corticotropin-releasing factor receptor 2/Corticotropin-releasing factor-binding protein. Put plainly: activators of CRF receptor 2 with binding protein – uHTS hits, confirmation (AID 602473). It counts as functional. Particulars: read-out: EC50_Mean.
Test [3] has as its target T2, RNA-binding protein pos-1 (Caenorhabditis elegans, UniProt G5EF15).
T2 sequence (G5EF15 whole entry): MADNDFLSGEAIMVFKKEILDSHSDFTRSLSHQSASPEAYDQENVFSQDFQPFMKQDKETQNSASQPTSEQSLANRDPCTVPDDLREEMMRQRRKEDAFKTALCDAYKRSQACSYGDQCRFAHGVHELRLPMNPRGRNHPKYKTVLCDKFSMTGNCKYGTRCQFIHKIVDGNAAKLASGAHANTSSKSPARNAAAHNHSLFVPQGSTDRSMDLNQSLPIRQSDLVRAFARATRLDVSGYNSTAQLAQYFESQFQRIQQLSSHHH
Briefly: inhibitors of POS-1/mex-3 RNA binding, dose response, biochemical, fluorescence polarization (AID 1964).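 Also: purified POS-1 fused to maltose binding protein made in E. coli; potency of compounds blocking POS-1 binding to fluorescent RNA.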 Background: Fluorescence polarisation rises when a labelled molecule tumbles more slowly, as on binding a larger partner.

Test [4] addresses T3, Zinc finger protein mex-5 (Caenorhabditis elegans, UniProt Q9XUB2).
T3 sequence (Q9XUB2 whole entry): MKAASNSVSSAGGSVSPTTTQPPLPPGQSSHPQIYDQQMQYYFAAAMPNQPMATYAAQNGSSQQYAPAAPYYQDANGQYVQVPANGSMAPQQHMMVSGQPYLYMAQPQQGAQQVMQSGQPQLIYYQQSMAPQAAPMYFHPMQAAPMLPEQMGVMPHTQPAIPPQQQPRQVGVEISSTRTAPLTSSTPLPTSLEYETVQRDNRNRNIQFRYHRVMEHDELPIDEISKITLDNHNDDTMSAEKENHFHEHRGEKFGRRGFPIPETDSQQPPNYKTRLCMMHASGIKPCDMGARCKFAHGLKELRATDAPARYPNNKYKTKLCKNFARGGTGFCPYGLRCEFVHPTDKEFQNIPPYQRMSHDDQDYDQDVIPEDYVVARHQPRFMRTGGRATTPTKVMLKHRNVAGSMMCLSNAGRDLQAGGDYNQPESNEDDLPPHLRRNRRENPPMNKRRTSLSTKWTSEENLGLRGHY
Briefly: MEX-5/TCR-2 RNA interaction inhibitors, dose response, biochemical, C. elegans, fluorescence polarization (AID 1960).

The target in test [5] is T4, Rac GTPase-activating protein 1 (Homo sapiens, UniProt Q9H0H5).
T4 sequence (Q9H0H5 whole entry): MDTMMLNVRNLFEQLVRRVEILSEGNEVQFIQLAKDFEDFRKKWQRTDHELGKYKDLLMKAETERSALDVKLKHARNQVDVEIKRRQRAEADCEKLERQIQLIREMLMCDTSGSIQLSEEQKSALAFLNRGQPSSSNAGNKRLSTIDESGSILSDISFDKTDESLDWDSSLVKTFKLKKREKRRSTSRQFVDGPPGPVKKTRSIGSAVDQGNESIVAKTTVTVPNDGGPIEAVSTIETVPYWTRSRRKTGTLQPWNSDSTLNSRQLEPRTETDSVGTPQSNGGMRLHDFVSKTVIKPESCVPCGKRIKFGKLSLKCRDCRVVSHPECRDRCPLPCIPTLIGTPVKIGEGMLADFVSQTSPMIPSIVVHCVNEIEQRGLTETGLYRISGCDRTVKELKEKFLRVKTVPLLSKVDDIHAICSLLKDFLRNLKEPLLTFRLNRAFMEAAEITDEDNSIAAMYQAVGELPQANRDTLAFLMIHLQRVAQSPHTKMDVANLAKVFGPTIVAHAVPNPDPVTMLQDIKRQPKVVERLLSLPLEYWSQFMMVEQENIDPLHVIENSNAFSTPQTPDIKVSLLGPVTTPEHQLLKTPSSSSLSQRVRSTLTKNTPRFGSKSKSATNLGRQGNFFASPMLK
Briefly: MgcRacGAP GTPase-activating activity inhibitors, confirmation, biochemical, ADP Hunter fluorescence, primary and confirmatory (AID 624330). It counts as functional.

For test [6], the target named is T5, Heat shock factor protein 1 (Mus musculus, UniProt P38532).
T5 sequence (P38532 whole entry): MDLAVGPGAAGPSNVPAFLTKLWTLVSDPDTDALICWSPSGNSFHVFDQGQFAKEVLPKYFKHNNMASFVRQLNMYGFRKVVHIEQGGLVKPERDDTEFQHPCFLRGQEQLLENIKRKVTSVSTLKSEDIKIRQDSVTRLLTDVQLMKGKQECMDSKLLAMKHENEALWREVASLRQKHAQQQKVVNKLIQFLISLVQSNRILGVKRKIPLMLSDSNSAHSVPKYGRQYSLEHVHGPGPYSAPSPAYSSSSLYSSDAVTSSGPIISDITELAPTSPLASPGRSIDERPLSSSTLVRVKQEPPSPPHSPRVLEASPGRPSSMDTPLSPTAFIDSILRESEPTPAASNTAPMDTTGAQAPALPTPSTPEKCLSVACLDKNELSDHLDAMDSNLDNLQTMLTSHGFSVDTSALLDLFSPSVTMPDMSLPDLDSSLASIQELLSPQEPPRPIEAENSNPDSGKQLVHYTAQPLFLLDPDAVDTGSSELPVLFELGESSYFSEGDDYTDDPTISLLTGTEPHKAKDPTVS
Put plainly: inhibition of MG132-induced HSE-luciferase signal, confirmation, cell-based, NIH3T3, luminescence, dose retest (AID 2382).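 Also: NIH3T3 fibroblasts with HSF1-driven luciferase reporter stressed by proteasome inhibitor MG132; luminescence from HSF1-driven luciferase expression after 8 hours of MG132 stress.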 It counts as functional.

The record followed here is ChEMBL document CHEMBL1201862, “PubChem BioAssay data set” (2004).

Active and inactive are the calls of the source. Rule as the data show it, for most assays here: actives have a measured EC50 and inactives only a lower limit.

Take `COc1ccccc1-c1cc(C(=O)NN)[nH]n1`: in test [1], the IC50 was > 47.1 µM (inactive). In test [2], the EC50 is > 53 µM (inactive).
`CCOC(=O)c1cc(CC)sc1NC=C1C(=O)NC(=S)NC1=O`: the EC50 in test [3] is > 300 µM (not active); in test [4] it was 15 µM (active).
Consider `COc1ccc(N2CCN(c3ccc(C(N)=O)cc3[N+](=O)[O-])CC2)cc1`, for which the IC50 in test [5] is 158 µM (active).
On the same count and under the same terms, for `CCOC(=O)c1[nH]c2ccc(OC)cc2c1NC(=O)c1ccccc1C(=O)O` the value was 109 µM (active).
Turning to `CCN(CC)P(=O)(NC(=O)c1cccn1C)N(CC)CC`, the EC50 in test [6] was > 195 µM (not active).
For `COc1ccc(NC(=O)C(=O)NCC(=O)Nc2cccc(C(F)(F)F)c2)cc1`, the IC50 in test [1] is > 47.1 µM (inactive). In addition, in test [2], the EC50 is > 53 µM (inactive).
With `CC(C)CNC(=O)c1noc2c1CCCC2`, the EC50 in test [6] is recorded as > 195 µM (not active).
Regarding `Nc1nc(CN2CCc3ccccc3C2)nc(Nc2ccccc2)n1`, in test [1], the IC50 was > 47.1 µM (inactive). Moreover, the EC50 in test [2] was > 53 µM (inactive).
Regarding `Oc1ccc(-c2csc(Nc3ncccn3)n2)cc1`, the IC50 in test [5] was 21.4 µM (active).
For `CCN(C(=O)COC(=O)Cc1cccc2ccccc12)C1CCS(=O)(=O)C1` (stereo unspecified), in test [1], the IC50 was > 47.1 µM (inactive). Besides, the EC50 in test [2] is > 53 µM (inactive).
On to `CC1=CC(C)(C)N2C(=O)C3(C(C#N)=C(N)OC4=C3C(=O)CCC4)c3c(C)c(C)cc1c32` (stereo unspecified), for which the EC50 in test [3] and in test [4] was > 300 µM (not active) throughout.
Turning to `Cc1ccc2c(c1)N(CC(=O)O)C(=O)CO2`, in test [6], the EC50 is listed as > 195 µM (not active).
Take `COc1cccc(C(=O)NNc2nc(C)cc(C)n2)c1`: the figures for the EC50 in test [3] and in test [4] were > 300 µM (not active) and 127 µM (active), respectively.
As to `Clc1cc(-c2ccc(/C=N/n3cnnc3)o2)ccc1Br`, the EC50 in test [3] was 59.4 µM (active); in test [4] it was 81.6 µM (active).
As for `O=C(CCNC(=O)c1ccc(Cl)cc1)Nc1ncccc1O`, in test [6], the EC50 is recorded as > 195 µM (not active).
The same measure, in the same setting: for `COC(=O)C1=C(C)N(Cc2ccco2)C(=O)C1` the value was > 195 µM (not active).
The same measure, in the same setting: for `COC(=O)c1cccc(N2C(=O)C3CC=CCC3C2=O)c1` (stereo unspecified) the value was > 100 µM (not active).
Consider `CCOc1ccccc1Nc1ccnc2cc(Cl)ccc12`, for which, in test [1], the IC50 is > 47.1 µM (inactive). In addition, the EC50 in test [2] was > 53 µM (inactive).
In the case of `Cc1nc(Nc2ccccc2)sc1C`, the EC50 in test [6] is on record as > 195 µM (not active).
For the molecule `COc1ccc(C2c3ccc(O)cc3Oc3ncn(Cc4ccco4)c(=N)c32)cc1OC` (stereo unspecified), the EC50 in test [3] and in test [4] was > 300 µM (not active) throughout.
On to `Cc1cc(C)c(NC(=O)CSc2nnc(-c3ccncc3)n2Cc2ccco2)c(Cl)c1`, for which the EC50 in test [6] is given as > 195 µM (not active).
In the case of `CC(C)c1ccc(CNc2ccc(N3CCOCC3)cc2)cc1`, in test [5], the IC50 is 12.4 µM (active).
With `CC1(C)CC(=O)C=C(Nc2ccc(Br)cc2F)C1`, in test [6], the EC50 is recorded as > 195 µM (not active).
Turning to `Oc1ccc(/C=N/NC2=NCCCCC2)c(O)c1`, in test [5], the IC50 was 43.2 µM (active).
For the molecule `Cc1nn(-c2ccccc2)c(C)c1NC(=O)COC(=O)c1ccccc1OC(F)F`, in test [1], the IC50 is > 47.1 µM (inactive). Also, the EC50 in test [2] was > 53 µM (inactive).
For `O=C(c1cccc([N+](=O)[O-])c1)c1ccc2c(c1)OCCOCCOCCO2`, in that order: > 47.1 µM (inactive) and > 53 µM (inactive).
As for `Cc1ccc(NC(=O)CCS(=O)(=O)c2cc3c(cc2Cl)NC(=O)CO3)cc1`, the EC50 in test [3] and in test [4] was > 300 µM (not active) in each case.
Take `N=C(Cc1ccc([N+](=O)[O-])cc1)NOC(=O)c1ccc(Br)cc1`: the IC50 in test [1] was 9.38 µM (active). In addition, in test [2], the EC50 is > 53 µM (inactive).
The corresponding values for `COc1cc(C(=O)NCc2ccccc2Cl)ccc1OCC(=O)N1CCOCC1` are > 47.1 µM (inactive) and > 53 µM (inactive).
Take `CCn1c(S)nc2c(=O)n(C)c(=O)n(C)c21`: the IC50 in test [5] is 21.1 µM (active).
As for `CCCC(C)NC(=O)c1ccc(C2SCC(=O)N2Cc2ccco2)cc1` (stereo unspecified), the EC50 in test [3] and in test [4] was > 300 µM (not active) each time.
As to `O=C(CN1CCN(c2ccccn2)CC1)Nc1ccc(F)cc1`, in test [5], the IC50 is 78.9 µM (active).
On to `COc1cccc(F)c1C(=O)NC(=O)Nc1ccc2nc(C)oc2c1`, for which the EC50 in test [3] is 17.8 µM (active); in test [4], 17.4 µM (active).
For `CCC(C)n1c(=N)c(C#N)cc2c(=O)n3cccc(C)c3nc21` (stereo unspecified), in that order: 296 µM (active) and 21.5 µM (inconclusive).
Turning to `C#CCOc1ccccc1CNC1CCN(Cc2ccccc2)CC1`, the IC50 in test [5] is 64.9 µM (active).
With `COc1ccc(CNC(=O)CN2CCN(c3ccc(F)cc3)CC2)cc1`, in test [1], the IC50 is > 47.1 µM (inactive). Also, the EC50 in test [2] was > 53 µM (inactive).
Consider `CC1CC(C)CN(CC(=O)NC(c2ccccc2)c2ccccc2)C1` (stereo unspecified), for which the IC50 in test [5] was 231 µM (active).
On to `CCOc1ccc(N2C(=O)NC(=O)/C(=C\Nc3ccc(N4CCOCC4)cc3)C2=O)cc1`, for which the values for the EC50 in test [3] and in test [4] were 17.6 µM (inconclusive) and 60.4 µM (inconclusive), respectively.
On to `COc1cc(/C=C/C(=O)OCC(=O)NCCC2=CCCCC2)ccc1O`, for which the IC50 in test [5] is 49 µM (active).
As for `Cc1ccccc1[N+](=O)[O-]`, the IC50 in test [1] was > 47.1 µM (inactive). The EC50 in test [2] is > 53 µM (inactive).
